From publication PMC2192625 (The Journal of Experimental Medicine, 1996) come the findings set out here.

In experiment [1] the test system is experimental allergic encephalomyelitis in HLA-DRA-IEα/HLA-DRB1*0401-IEβ Tg mice. The format is in vivo, mouse.
The target of experiment [2] is HLA-DRB1*0401 molecules purified from Priess cells (Homo sapiens, UniProt P01903+P01911, A100K/A169T/F76Y/I96L/K127E/L162R/M171V/N62H/P40V/Q125Y/R42H/S133A/S149N/S66Y/V115G/V209L/W38E). Put plainly: biochemical. Type of experiment: binding.
The target in experiment [3] is HLA-DRA-IEα/HLA-DRB1*0401-IEβ chimeric molecules purified from transfected M12.C3 cells (Homo sapiens, UniProt P01903+P01911, A100K/A169T/F76Y/I96L/K127E/L162R/M171V/N62H/P40V/Q125Y/R42H/S133A/S149N/S66Y/V115G/V209L/W38E). Put plainly: biochemical. The format is binding, human/mouse chimeric.

pIC50: −log10 of the molar value. Where two headings read alike, the source gives them in different places. Residues, ends and D or L forms follow the SMILES beside them.

On to `CC[C@H](C)[C@H](NC(=O)[C@H](CC(N)=O)NC(=O)[C@H](CCCCN)NC(=O)[C@H](Cc1ccccc1)NC(=O)[C@H](Cc1ccccc1)NC(=O)[C@H](Cc1c[nH]cn1)NC(=O)[C@@H](NC(=O)[C@@H](N)C(C)C)C(C)C)C(=O)N[C@H](C(=O)N[C@H](C(=O)N1CCC[C@H]1C(=O)N[C@@H](CCCNC(=N)N)C(=O)N[C@H](C(=O)N1CCC[C@H]1C(=O)N1CCC[C@H]1C(=O)N1CCC[C@H]1C(=O)N[C@@H](CO)C(=O)N[C@@H](CCC(N)=O)C(=O)NCC(=O)N[C@@H](CCCCN)C(=O)O)[C@@H](C)O)[C@@H](C)O)C(C)C` [MBP87-106] (H-VVHFFKNIVTPRTPPPSQGK-OH; N-terminus and C-terminus assumed), for which the “Severity: number of mice with clinical score 0 (no disease)” value in experiment [1] (Non-Tg mice, n = 5, Table 2) worked out at 5. Further, the “EAE developed (in words)” value in experiment [1] (Tg mice) is recorded as “only a mild EAE”. Also, in experiment [1] (Tg mice, n = 5, Table 2), the “Severity: number of mice with clinical score 0 (no disease)” value worked out at 2, the “Severity: number of mice with clinical score 1 (tail atony)” value is given as 2 and the “Severity: number of mice with clinical score 3 (hind-limb paralysis)” value was 1.

On to `CC[C@H](C)[C@H](NC(=O)[C@H](CO)NC(=O)[C@H](CCC(N)=O)NC(=O)[C@H](CS)NC(=O)[C@@H](NC(=O)[C@@H](NC(=O)[C@H](Cc1c[nH]c2ccccc12)NC(=O)[C@@H](NC(=O)[C@H](CC(N)=O)NC(=O)[C@H](Cc1ccccc1)NC(=O)[C@H](Cc1ccc(O)cc1)NC(=O)[C@@H](NC(=O)[C@@H](N)Cc1ccc(O)cc1)[C@@H](C)CC)[C@@H](C)O)[C@@H](C)O)[C@@H](C)O)C(=O)N[C@@H](C)C(=O)N[C@@H](Cc1ccccc1)C(=O)N1CCC[C@H]1C(=O)N[C@@H](CO)C(=O)N[C@@H](CCCCN)C(=O)O` [PLP175-192] (H-YIYFNTWTTCQSIAFPSK-OH), for which the negative logarithm of the IC50 (pIC50) (commonly the IC50 on a negative log10 scale, so that one unit is a factor of ten) in experiment [2] is 6.73; in experiment [3], 6.77.

Turning to `CSCC[C@H](NC(=O)[C@H](C)NC(=O)[C@H](CCCNC(=N)N)NC(=O)[C@@H](N)Cc1ccc(O)cc1)C(=O)N[C@@H](C)C(=O)N[C@@H](C)C(=O)N[C@@H](CC(C)C)C(=O)O` [Peptide A6-m1-7] (H-YRAMAAL-OH), the pIC50 was 6.39 in experiment [2] and 6.28 in experiment [3].

For `CSCC[C@H](NC(=O)[C@H](C)NC(=O)[C@H](CCCNC(=N)N)NC(=O)[C@@H](N)Cc1ccc(O)cc1)C(=O)N[C@@H](C)C(=O)N[C@@H](CO)C(=O)N[C@@H](CC(C)C)C(=O)O` [Peptide S6-m1-7] (H-YRAMASL-OH), the results for the negative logarithm of the IC50 (pIC50) in experiment [2] and in experiment [3] were 7.37 and 7.28, respectively.

`CSCC[C@H](NC(=O)[C@H](C)NC(=O)[C@H](CCCNC(=N)N)NC(=O)[C@@H](N)Cc1ccc(O)cc1)C(=O)N[C@@H](C)C(=O)N[C@H](C(=O)N[C@@H](CC(C)C)C(=O)O)[C@@H](C)O` [m 1-7] (H-YRAMATL-OH): the values for the negative logarithm of the IC50 (pIC50) in experiment [2] and in experiment [3] were 6.92 and 6.89, respectively.
